The values below are quoted from earlier work in patent US12100485B2, “Machine learning and molecular simulation based methods for enhancing binding and activity prediction” (The Board of Trustees of the Leland Stanford Junior …, priority 2018, dated 2024).

One data set deals with μOR.
Settings: not given
`CN1CC[C@]23c4c5ccc(O)c4O[C@H]2[C@@H](O)CC[C@@]3(O)[C@H]1C5` [hydromorphinol]: the Action entry is reported as “agonist”.
In the case of endomorphin-1, the Action result was “agonist”.
On to `CCC(=O)O[C@]1(c2ccccc2)CCN(C)C[C@@H]1CC` [meprodine], for which the Action entry is recorded as “agonist”.
As for `C=CCC1CN(C)CCC1(OC(=O)CC)c1ccccc1` (stereo not drawn) [allylprodine], the Action result is “agonist”.
Take `C=CCN1CC[C@]23c4c5ccc(O)c4O[C@H]2[C@@H](OCCOCCOCCOCCOCCOCCOCCOC)CC[C@@]3(O)[C@H]1C5` [naloxegol]: the Action entry is “Antagonists”.
Turning to `CN(C)C(=O)C(CCN1CCC(O)(c2ccc(Cl)cc2)CC1)(c1ccccc1)c1ccccc1` [loperamide], the Action entry is on record as “agonist”.
Consider `CCC(OC(C)=O)C(CC(C)N(C)C)(c1ccccc1)c1ccccc1` (stereo not drawn) [acetylmethadol], for which the Action entry was “agonist”.
With `Oc1ccc2c(c1)[C@@]13CCCC[C@H]1[C@@H](C2)N(CCc1ccccc1)CC3` [phenomorphan], the Action entry is on record as “agonist”.
On to `CC[C@H](O)C(C[C@@H](C)N(C)C)(c1ccccc1)c1ccccc1` [betamethadol], for which the Action result is on record as “agonist”.
As for `CCC(=O)C(CC(C)N1CCCCC1)(c1ccccc1)c1ccccc1` (stereo not drawn) [dipipanone], the Action result was “agonist”.
With `COc1ccc2c3c1O[C@H]1[C@@H](O)CC[C@H]4[C@@H](C2)N(C)CC[C@@]341` [methyldihydromorphine], the Action entry is “agonist”.
Regarding `COCCN1CC[C@]23c4c5ccc(O)c4O[C@H]2C(=O)CC[C@@]3(O)[C@H]1C5` [semorphone], the Action entry is given as “agonist”.
For the compound `C=CCN1CC[C@]23c4c5ccc(O)c4O[C@H]2/C(=N\N)CC[C@@]3(O)[C@H]1C5` [naloxazone], the Action result is given as “Antagonists”.
With `CCCCCN[C@@]12C=CC(=O)[C@@H]3Oc4c(O)ccc5c4[C@@]31CCN(C)[C@@H]2C5` [pentamorphone], the Action result is on record as “agonist”.
For the compound `O=C(/C=C/c1ccc(Cl)cc1)N[C@@]12CCC(=O)[C@@H]3Oc4c(O)ccc5c4[C@@]31CCN(CC1CC1)[C@@H]2C5` [clocinnamox], the Action result is reported as “antagonist”.
As for `Cc1ccc(/C=C/C(=O)N[C@@]23CCC(=O)[C@@H]4Oc5c(O)ccc6c5[C@@]42CCN(CC2CC2)[C@@H]3C6)cc1` [methocinnamox], the Action result is “antagonist”.
In the case of `C[N@+]1(CC2CC2)CC[C@]23CC(=O)CC[C@@]2(O)[C@H]1Cc1ccc(C(N)=O)c(O)c13` [methylsamidorphan], the Action entry is recorded as “antagonist”.
Take `Oc1ccc2c(c1)[C@@]13CCCC[C@@]1(O)[C@@H](C2)N(CC1CC1)CC3` [oxilorphan]: the Action result is recorded as “Antagonists”.
With `C=CCN1CC[C@]23c4c5ccc(O)c4O[C@H]2/C(=N/N=C2\CC[C@@]4(O)[C@H]6Cc7ccc(O)c8c7[C@@]4(CCN6CC=C)[C@H]2O8)CC[C@@]3(O)[C@H]1C5` [naloxonazine], the Action result is “Antagonists”.
Consider `N/N=C1/CC[C@@]2(O)[C@H]3Cc4ccc(O)c5c4[C@@]2(CCN3CC2CC2)[C@H]1O5` [naltrexazone], for which the Action entry is reported as “Antagonists”.
Regarding `COc1ccc(CN(C(=O)[C@@H](N)Cc2c(C)cc(C(N)=O)cc2C)[C@@H](C)c2ncc(-c3ccccc3)[nH]2)cc1C(=O)O` [eluxadoline], the Action result is recorded as “agonist”.
As for `CN1CCC23CCCCC2C1Cc1ccc(O)cc13` (stereo not drawn) [racemorphan], the Action entry is recorded as “agonist”.

The data set is the same for the next values; noted with them: known pharmacology, training dataset.
As to `C[N@+]1(CC2CC2)CC[C@]23c4c5ccc(O)c4O[C@H]2C(=O)CC[C@@]3(O)[C@H]1C5` [methylnaltrexone], the Action entry is “antagonist”.
Take `C=C1CC[C@@]2(O)[C@H]3Cc4ccc(O)c5c4[C@@]2(CCN3CC2CC2)[C@H]1O5` [nalmefene]: the Action entry is “Antagonists”.
